Tests used:
[1] = Membrane fluidity (DPH fluorescence anisotropy) in artificial membranes (LUVs); conditions: LUVs of di-oleil-fosfatidyl-ethanolamine, di-oleil-fosfatidyl-choline, cardiolipin and fosfatidylserine; 1 DPH per 500 lipid molecules
Source text: Test to evaluate changes of MPS in artificial membranes (LUVs, Large Unilamellar Vesicles), made of di-oleil-fosfatidyl-ethanolamine, di-oleil-fosfatidyl-choline, cardiolipin and fosfatidylserine, that mimic biological membrane lipid composition. Fluidity has been measured with DPH (1,6-difenyl-1,3,5-esatriene) measuring fluorescence.
In these membranes, every 500 lipid molecules is inserted. 1 molecule of DPH This substance emits fluorescent light when it is excited with polarized light. The more a membrane is rigid the less is the capacity of the molecules to rotate freely in the membrane. Using a fluorimeter that detects the emitted fluorescence by DPH, either vertically in respect to the polarizing light or horizontally, the anisotropy of the membrane is determined and correlated to its fluidity. The more the membrane is fluid, the more DPH rotates freely and emits light in a direction different from that with which it receives the excitation. To a higher value of anisotropy corresponds a higher rigidity of the membrane, while a lower anisotropy (low fluorescence) corresponds a higher fluidity.

human hsp70 promoter = test: Luciferase reporter assay under control of human hsp70 promoter in L929 cells exposed to heat shock; assay type: cell-based, murine; conditions: 10 μM, heat shock at 40° C. and 41° C., Bimoclomol as internal positive control
Procedure: For example, L929 cells, incubated at 37° C., are stressed by heat shock at 40° or 41° C. with exposures variable from 20 min to an hour or more. After heat shock, a molecular assay that involves mRNA purification, its separation on agarose or acrylamide gels followed by hybridization with a labeled probe ([…] performed. Alternatively, the activity of luciferase used as reported gene under the control of a heat shock promoter can be used (FIG. 1). In this case, after heat shock cells are lysed in the presence of an appropriate substrate for luciferase, the activity is measured with a luminometer. […] The test utilized to assay the over expression of heat shock genes is based on a rapid enzymatic assay to determine luminescence of eukaryotic cells transfected with luciferase gene. The luciferase gene has been cloned in an eukaryotic plasmid under the control of human hsp70 gene and transfected in murine fibroblasts (L929 cell line). In such cells, a heat shock induces hsp70 promoter that activates transcription of the downstream gene (reporter gene, e.g. luciferase) whose activity is measured determining luciferase in the presence of luciferine with a luminometer. […] After lysis, luciferase activity has been determined measuring the quantity of light emitted with a luminometer. […]

Row | SMILES | change of membrane physical state (fluidity) measured with DPH fluorescence [1] | heat shock response (hsp70 promoter-driven luciferase activity / inducibility of hsp70 mRNA transcription by heat shock) (human hsp70 promoter)
1 | Oc1ccc2c(c1)O[C@H](c1ccc(O)c(O)c1)[C@@H](O[C@@H]1OC[C@@H](O)[C@H](O)[C@H]1O)C2 [#11, fisetinidol-3-O-β-D-xylopyranoside] | increases fluidity | induce a heat shock response
2 | Oc1ccc(C=Cc2cc(O)cc(O)c2)cc1 [#100, Resveratrol, reference compound] | – | inhibits the inducibility of hsp70 mRNA transcription by heat shock
